The values that follow come from US20260049076A1, “Tertiary Amine Substituted Bicyclic Compounds Useful as T Cell Activators” (BRISTOL-MYERS SQUIBB COMPANY, priority 2022, published 2026).

One experiment has as its target T1, human DGKα (Homo sapiens, UniProt P23743).
T1 construct: TVMV protease cleavage site (C); Hexa-His (C); made in house; host or cells: Sf9 insect cells (baculovirus)
The experiment is described as follows: In vitro DGK inhibition assay, DGKα liposome (LIPGLO) assay. Particulars: read-out: Enzyme Inhibition DGKalpha IC50. In kind it is biochemical. An outline of the steps:
(§1)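 Baculovirus/Sf9-expressed His-tagged human DGKα or DGKζ (5 nM) on extruded liposomes (2 mM PS, 0.25 mM DAG, 2.75 mM PC) in MOPS pH 7.5 with MgCl2, CaCl2 and 150 μM ATP, 1 h.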

The target of another experiment is T2, human DGKζ (Homo sapiens, UniProt Q13574).
T2 construct: TVMV protease cleavage site (C); Hexa-His (C); made in house; host or cells: Sf9 insect cells (baculovirus)
T2 sequence (Q13574 with tags, fused parts or gaps isoform Q13574-4): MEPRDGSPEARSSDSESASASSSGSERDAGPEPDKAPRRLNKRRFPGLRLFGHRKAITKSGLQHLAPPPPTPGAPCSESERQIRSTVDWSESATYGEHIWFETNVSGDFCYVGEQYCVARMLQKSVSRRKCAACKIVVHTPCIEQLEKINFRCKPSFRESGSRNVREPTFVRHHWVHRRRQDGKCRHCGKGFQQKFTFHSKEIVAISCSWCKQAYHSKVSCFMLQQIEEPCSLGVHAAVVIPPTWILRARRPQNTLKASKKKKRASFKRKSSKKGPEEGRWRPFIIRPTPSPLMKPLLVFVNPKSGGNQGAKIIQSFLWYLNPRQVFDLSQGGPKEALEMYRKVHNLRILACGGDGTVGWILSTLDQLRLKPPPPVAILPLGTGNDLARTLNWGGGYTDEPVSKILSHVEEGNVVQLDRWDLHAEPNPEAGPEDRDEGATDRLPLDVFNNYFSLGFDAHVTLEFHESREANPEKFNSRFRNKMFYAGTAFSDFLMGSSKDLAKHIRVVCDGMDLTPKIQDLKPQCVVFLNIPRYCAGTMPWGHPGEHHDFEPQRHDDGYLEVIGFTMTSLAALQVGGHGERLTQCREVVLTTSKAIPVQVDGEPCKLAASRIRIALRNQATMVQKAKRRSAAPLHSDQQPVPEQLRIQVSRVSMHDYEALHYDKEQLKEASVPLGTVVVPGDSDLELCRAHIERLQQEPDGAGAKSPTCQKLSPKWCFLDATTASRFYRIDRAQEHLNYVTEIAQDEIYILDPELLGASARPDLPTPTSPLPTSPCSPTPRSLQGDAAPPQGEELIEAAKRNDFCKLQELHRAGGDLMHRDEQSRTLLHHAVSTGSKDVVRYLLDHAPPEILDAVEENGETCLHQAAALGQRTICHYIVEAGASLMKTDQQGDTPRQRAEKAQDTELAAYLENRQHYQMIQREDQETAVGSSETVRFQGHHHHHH
Put plainly: In vitro DGK inhibition assay, DGKζ liposome (LIPGLO) assay. The following applies: read-out: Enzyme Inhibition DGKzeta IC50. In kind it is biochemical. The procedure, abridged:
as §1

T1 sequence (P23743 with tags, fused parts or gaps): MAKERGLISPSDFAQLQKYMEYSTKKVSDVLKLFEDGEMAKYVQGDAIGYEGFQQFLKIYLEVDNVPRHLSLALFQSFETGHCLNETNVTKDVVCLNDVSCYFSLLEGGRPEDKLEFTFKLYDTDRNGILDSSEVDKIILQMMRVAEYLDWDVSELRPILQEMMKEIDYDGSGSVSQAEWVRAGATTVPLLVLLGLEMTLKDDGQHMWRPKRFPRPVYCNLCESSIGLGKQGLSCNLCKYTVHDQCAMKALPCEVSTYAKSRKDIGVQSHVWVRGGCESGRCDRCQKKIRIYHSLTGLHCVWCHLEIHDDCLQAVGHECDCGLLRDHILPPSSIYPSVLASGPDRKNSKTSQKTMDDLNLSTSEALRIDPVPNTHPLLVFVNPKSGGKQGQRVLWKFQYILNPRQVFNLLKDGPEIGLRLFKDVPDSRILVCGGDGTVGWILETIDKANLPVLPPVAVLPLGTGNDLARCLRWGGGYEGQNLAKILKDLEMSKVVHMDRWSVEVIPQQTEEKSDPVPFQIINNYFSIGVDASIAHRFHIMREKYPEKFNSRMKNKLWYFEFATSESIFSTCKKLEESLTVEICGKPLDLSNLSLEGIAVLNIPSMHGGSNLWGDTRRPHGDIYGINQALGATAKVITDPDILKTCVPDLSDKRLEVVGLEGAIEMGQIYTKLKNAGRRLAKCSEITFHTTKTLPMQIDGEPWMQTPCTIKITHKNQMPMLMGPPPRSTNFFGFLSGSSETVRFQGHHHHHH

As to `Cn1c(=O)cc(N(CC2CC2)c2ccc(-c3cccc(O)c3)cc2)c2nc(C#N)ccc21` [Example 81, 8-((cyclopropylmethyl)(3′-hydroxy-[1,1′-biphenyl]-4-yl)amino)-5-methyl-6-oxo-5,6-dihydro-1,5-naphthyridine-2-carbonitrile], the results for the IC50 at human DGKα and at human DGKζ were 3.8 µM and 3.7 µM, respectively.
For `CN(C)C(=O)c1ccc(-c2ccc(N(CC3CC3)c3cc(=O)n(C)c4ccc(C#N)nc34)cc2)cc1` [Example 82, 4′-((6-cyano-1-methyl-2-oxo-1,2-dihydro-1,5-naphthyridin-4-yl) (cyclopropylmethyl)amino)-N,N-dimethyl-[1,1′-biphenyl]-4-carboxamide] the same measures were 3.8 µM and 2 µM.
For `Cn1c(=O)cc(N(CC2CC2)c2ccc(-c3cccc(C(N)=O)c3)cc2)c2nc(C#N)ccc21` [Example 84, 4′-((6-cyano-1-methyl-2-oxo-1,2-dihydro-1,5-naphthyridin-4-yl)(cyclopropylmethyl)amino)-[1,1′-biphenyl]-3-carboxamide] the same measures were 18 µM and 7.6 µM.
As to `Cn1c(=O)cc(N(CC2CC2)c2ccc(-c3cccc(CNS(C)(=O)=O)c3)cc2)c2nc(C#N)ccc21` [Example 85, N-((4′-((6-cyano-1-methyl-2-oxo-1,2-dihydro-1,5-naphthyridin-4-yl) (cyclopropylmethyl)amino)-[1,1′-biphenyl]-3-yl)methyl)methanesulfonamide], the IC50 (commonly the concentration at which inhibition is half-maximal) at human DGKα came out at 5.6 µM; on human DGKζ it was 4 µM.
For the compound `CN(C)c1ccc(-c2ccc(N(CC3CC3)c3cc(=O)n(C)c4ccc(C#N)nc34)cc2)cc1` [Example 87, 8-((cyclopropylmethyl)(4′-(dimethylamino)-[1,1′-biphenyl]-4-yl)amino)-5-methyl-6-oxo-5,6-dihydro-1,5-naphthyridine-2-carbonitrile], the IC50 is 1.1 µM at human DGKα and 2 µM on human DGKζ.
For `CN(C)C(=O)c1cccc(-c2ccc(N(CC3CC3)c3cc(=O)n(C)c4ccc(C#N)nc34)cc2)c1` [Example 88, 4′-((6-cyano-1-methyl-2-oxo-1,2-dihydro-1,5-naphthyridin-4-yl)(cyclopropylmethyl)amino)-N,N-dimethyl-[1,1′-biphenyl]-3-carboxamide] the same measures were 3.2 µM and 0.88 µM.
For `CN(C)c1cccc(-c2ccc(N(CC3CC3)c3cc(=O)n(C)c4ccc(C#N)nc34)cc2)c1` [Example 89, 8-((cyclopropylmethyl)(3′-(dimethylamino)-[1,1′-biphenyl]-4-yl)amino)-5-methyl-6-oxo-5,6-dihydro-1,5-naphthyridine-2-carbonitrile], in that order: 2.5 µM and 0.92 µM.
For `COc1cc(-c2ccc(N(CC3CC3)c3cc(=O)n(C)c4ccc(C#N)nc34)cc2)ccn1` [Example 90, 8-((cyclopropylmethyl)(4-(2-methoxypyridin-4-yl)phenyl)amino)-5-methyl-6-oxo-5,6-dihydro-1,5-naphthyridine-2-carbonitrile] the same measures were 12 µM and 5 µM.
For `COc1ccc(-c2cccc(N(CC3CC3)c3cc(=O)n(C)c4ccc(C#N)nc34)c2)cc1` [Example 91, 8-((cyclopropylmethyl)(4′-methoxy-[1,1′-biphenyl]-3-yl)amino)-5-methyl-6-oxo-5,6-dihydro-1,5-naphthyridine-2-carbonitrile], the IC50 was 0.023 µM at human DGKα and 3.2 µM on human DGKζ.
For `Cc1cccc(-c2cccc(N(CC3CC3)c3cc(=O)n(C)c4ccc(C#N)nc34)c2)c1` [Example 92, 8-((cyclopropylmethyl)(3′-methyl-[1,1′-biphenyl]-3-yl)amino)-5-methyl-6-oxo-5,6-dihydro-1,5-naphthyridine-2-carbonitrile], in that order: 0.77 µM and 7.2 µM.
For `Cc1ccccc1-c1cccc(N(CC2CC2)c2cc(=O)n(C)c3ccc(C#N)nc23)c1` [Example 93, 8-((cyclopropylmethyl)(2′-methyl-[1,1′-biphenyl]-3-yl)amino)-5-methyl-6-oxo-5,6-dihydro-1,5-naphthyridine-2-carbonitrile] the same measures were 4.2 µM and 9.2 µM.
For `Cn1c(=O)cc(N(CC2CC2)c2cccc(-c3cccc(Cl)c3)c2)c2nc(C#N)ccc21` [Example 94, 8-((3′-chloro-[1,1′-biphenyl]-3-yl) (cyclopropylmethyl)amino)-5-methyl-6-oxo-5,6-dihydro-1,5-naphthyridine-2-carbonitrile], in that order: 2.5 µM and 9.1 µM.
Consider `COc1cccc(-c2cccc(N(CC3CC3)c3cc(=O)n(C)c4ccc(C#N)nc34)c2)c1` [Example 95, 8-((cyclopropylmethyl)(3′-methoxy-[1,1′-biphenyl]-3-yl)amino)-5-methyl-6-oxo-5,6-dihydro-1,5-naphthyridine-2-carbonitrile], for which the figures for the IC50 on human DGKα and on human DGKζ were 2 µM and 6.2 µM, respectively.
Regarding `COc1ccccc1-c1cccc(N(CC2CC2)c2cc(=O)n(C)c3ccc(C#N)nc23)c1` [Example 96, 8-((cyclopropylmethyl)(2′-methoxy-[1,1′-biphenyl]-3-yl)amino)-5-methy-6-oxo-5,6-dihydro-1,5-naphthyridine-2-carbonitrile], the IC50 on human DGKα came out at 2.9 µM; at human DGKζ it was 5.4 µM.
For `Cn1c(=O)cc(N(CC2CC2)c2cccc(-c3ccccc3Cl)c2)c2nc(C#N)ccc21` [Example 97, 8-((2′-chloro-[1,1′-biphenyl]-3-yl)(cyclopropylmethyl)amino)-5-methyl-6-oxo-5,6-dihydro-1,5-naphthyridine-2-carbonitrile] the same measures were 1.9 µM and 8 µM.
For `Cn1c(=O)cc(N(CC2CC2)c2cccc(-c3cccc(O)c3)c2)c2nc(C#N)ccc21` [Example 99, 8-((cyclopropylmethyl)(3′-hydroxy-[1,1′-biphenyl]-3-yl)amino)-5-methyl-6-oxo-5,6-dihydro-1,5-naphthyridine-2-carbonitrile], in that order: 1.8 µM and 31 µM.
On to `CN(C)C(=O)c1ccc(-c2cccc(N(CC3CC3)c3cc(=O)n(C)c4ccc(C#N)nc34)c2)cc1` [Example 101, 3′-((6-cyano-1-methyl-2-oxo-1,2-dihydro-1,5-naphthyridin-4-yl)(cyclopropylmethyl)amino)-N,N-dimethyl-[1,1′-biphenyl]-4-carboxamide], for which the IC50 at human DGKα is 0.93 µM; on human DGKζ, 13 µM.
For `Cn1c(=O)cc(N(CC2CC2)c2cccc(-c3ccc(CNS(C)(=O)=O)cc3)c2)c2nc(C#N)ccc21` [Example 102, N-((3′-((6-cyano-1-methyl-2-oxo-1,2-dihydro-1,5-naphthyridin-4-yl)(cyclopropylmethyl)amino)-[1,1′-biphenyl]-4-yl)methyl)methanesulfonamide], the values for the IC50 at human DGKα and at human DGKζ were 0.18 µM and 3.5 µM, respectively.
For `Cn1c(=O)cc(N(CC2CC2)c2cccc(-c3ccc(C(N)=O)cc3)c2)c2nc(C#N)ccc21` [Example 103, 3′-((6-cyano-1-methyl-2-oxo-1,2-dihydro-1,5-naphthyridin-4-yl)(cyclopropylmethyl)amino)-[1,1′-biphenyl]-4-carboxamide] the same measures were 0.12 µM and 2 µM.
For `Cn1c(=O)cc(N(CC2CC2)c2cccc(-c3cccc(C(N)=O)c3)c2)c2nc(C#N)ccc21` [Example 104, 3′-((6-cyano-1-methyl-2-oxo-1,2-dihydro-1,5-naphthyridin-4-yl) (cyclopropylmethyl)amino)-[1,1′-biphenyl]-3-carboxamide], in that order: 41 µM and 5.2 µM.
For `Cn1c(=O)cc(N(CC2CC2)c2cccc(-c3cccc(CNS(C)(=O)=O)c3)c2)c2nc(C#N)ccc21` [Example 105, N-((3′-((6-cyano-1-methyl-2-oxo-1,2-dihydro-1,5-naphthyridin-4-yl) (cyclopropylmethyl)amino)-[1,1′-biphenyl]-3-yl)methyl)methanesulfonamide] the same measures were 33 µM and 4.4 µM.
In the case of `Cn1c(=O)cc(N(CC2CC2)c2cccc(-c3cccnc3)c2)c2nc(C#N)ccc21` [Example 106, 8-((cyclopropylmethyl)(3-(pyridin-3-yl)phenyl)amino)-5-methyl-6-oxo-5,6-dihydro-1,5-naphthyridine-2-carbonitrile], the IC50 came to 0.66 µM on human DGKα and 2.2 µM on human DGKζ.
For `CN(C)c1ccc(-c2cccc(N(CC3CC3)c3cc(=O)n(C)c4ccc(C#N)nc34)c2)cc1` [Example 107, 8-((cyclopropylmethyl)(4′-(dimethylamino)-[1,1′-biphenyl]-3-yl)amino)-5-methyl-6-oxo-5,6-dihydro-1,5-naphthyridine-2-carbonitrile], in that order: 0.022 µM and 2 µM.
For `CN(C)C(=O)c1cccc(-c2cccc(N(CC3CC3)c3cc(=O)n(C)c4ccc(C#N)nc34)c2)c1` [Example 108, 3′-((6-cyano-1-methyl-2-oxo-1,2-dihydro-1,5-naphthyridin-4-yl)(cyclopropylmethyl)amino)-N,N-dimethyl-[1,1′-biphenyl]-3-carboxamide], in that order: 44 µM and 3.7 µM.
For `CN(C)c1cccc(-c2cccc(N(CC3CC3)c3cc(=O)n(C)c4ccc(C#N)nc34)c2)c1` [Example 109, 8-((cyclopropylmethyl)(3′-(dimethylamino)-[1,1′-biphenyl]-3-yl)amino)-5-methyl-6-oxo-5,6-dihydro-1,5-naphthyridine-2-carbonitrile], in that order: 6.3 µM and 3.7 µM.
As for `COc1cc(-c2cccc(N(CC3CC3)c3cc(=O)n(C)c4ccc(C#N)nc34)c2)ccn1` [Example 110, 8-((cyclopropylmethyl)(3-(2-methoxypyridin-4-yl)phenyl)amino)-5-methyl-6-oxo-5,6-dihydro-1,5-naphthyridine-2-carbonitrile], the IC50 on human DGKα turned out to be 12 µM; on human DGKζ it was 7.3 µM.
